Our source for the IC50 values is patent publication US8519188B2, “Compounds which can be used for the treatment of cancers” (Marc-Henry Pitty, priority 2008, dated 2013).

In test [1] the test system is MCF-7/adr adriamycin-resistant breast cancer cell line. Nature of the test: Cell proliferation (CellTiter 96 AQueous MTS/PMS), MCF-7/adr. It is filed as cell-based. To be noted: Homo sapiens, NCI/ADR-RES; MCF-7/adr; 72 hours of incubation; concentration that induces the death of 50% of the cells; read-out: CI50 for various cell lines (nM) MCF-7/adr. Here is the method: (§1) The effects of the compounds of the invention on the proliferation of cancer cells were studied on various human cancer cell lines of various tissue origins (MCF-7: breast cancer, MCF-7/adr adriamycin-resistant breast cancer, ARH-77: myeloma, ARH-77/Dox: doxorubicin (other name for adriamycin)-resistant myeloma, HL-60: acute promyelocytic leukaemia, HL-60/R10: doxorubicin-resistant acute promyelocytic leukaemia). The cancer cells used for this study were incubated at 37° C. in the presence of one of the compounds of the invention added to the culture medium at various concentrations.
(§2) The cancer cell lines originate from the ATCC (American Type Culture Collection) in the case of MCF-7, ARH-77 and HL-60, from Pharmacell (Paris, France) for HL-60/R10, from Oncodesign (Dijon, France) for ARH-77/Dox and from the Pitié Salpetrière Hospital for MCF-7/adr. They were cultivated in a RPMI 1640 medium containing 2 mM L-glutamine and supplemented with 10% foetal calf serum. All the cell lines were maintained in culture at 37° C. in a moist atmosphere containing 5% CO2. Cell proliferation was evaluated using the “CellTiter 96® AQueous” reagent (Promega, Wis., USA) while adhering to the manufacturer's instructions. The cells were seeded in 96-well culture plates in a proportion of from 5,000 to 10,000 cells per well in 200 μl of culture medium. After 24 hours of preincubation at 37° C., the compounds of the invention dissolved in dimethyl sulphoxide (DMSO) were added individually to each of the wells in a proportion of 2 μl per well. After 72 hours of incubation at 37° C. in a moist atmosphere containing 5% CO2, 40 μL of a MTS/PMS ([3-(4,5-dimethylthiazol-2-yl)-5-(3-carboxymethoxyphenyl)-2-(4-sulphophenyl)-2H-tetrazolium phenazine methosulphate) solution were added to each well.

For test [2], the system named is MCF-7 breast cancer cell line. The test is described as follows: Cell proliferation (CellTiter 96 AQueous MTS/PMS), MCF-7. It is filed as cell-based. To be noted: Homo sapiens, MCF7; MCF-7; 72 hours of incubation; concentration that induces the death of 50% of the cells; read-out: CI50 for various cell lines (nM) MCF-7. Here is the method: as §1, §2

Structures are written as SMILES.

`C#CC(=O)N(C(C(=O)NCc1ccccc1)c1cccs1)[C@@H](C)c1ccccc1` (stereo partly drawn) [Compound 8, Propynoic Acid (benzylcarbamoylthiophen-2-yl-methyl)-((S)-1-phenylethyl)amide]: the IC50 in test [1] was determined as 30 nM.
For the molecule `C#CC(=O)N(C(C(=O)NCc1ccccc1)c1cccs1)[C@H](C)c1ccccc1` (stereo partly drawn) [Compound 9, Propynoic Acid (benzylcarbamoylthiophen-2-yl-methyl)-((R)-1-phenylethyl)amide], the IC50 in test [1] turned out to be 30 nM.
Same read-out and setting: the result for `C#CC(=O)N(CC(C)C)C(C(=O)NC1CCCCC1)c1cccs1` (stereo not drawn) [Compound 12, Propynoic Acid (cyclohexylcarbamoylthiophen-2-yl-methyl)isobutylamide] reads 30 nM.
In the case of `C#CC(=O)N(CC(C)C)C(C(=O)NCc1ccccc1)c1cccs1` (stereo not drawn) [Compound 16, Propynoic Acid (benzylcarbamoylthiophen-2-yl-methyl)isobutylamide], in test [1], the IC50 was 1 nM.
Still for that read-out and setting: the result for `C#CC(=O)N(CC1CC1)C(C(=O)NCc1ccccc1)c1cccs1` (stereo not drawn) [Compound 18, Propynoic Acid (benzylcarbamoylthiophen-2-yl-methyl)cyclopropylmethylamide] reads 30 nM.
Take `C#CC(=O)N(c1cccc(C(F)(F)F)c1)C(C(=O)NC1CCCCC1)c1ccc(C)s1` (stereo not drawn) [Compound 19, Propynoic Acid [cyclohexylcarbamoyl-(5-methylthiophen-2-yl)-methyl]-(3-trifluoromethylphenyl)amide]: the IC50 in test [1] amounted to 1.4 nM; in test [2] it was 340 nM.
On to `C#CC(=O)N(c1cccc([N+](=O)[O-])c1)C(C(=O)NC1CCCCC1)c1cccs1` (stereo not drawn) [Compound 27, Propynoic Acid (cyclohexylcarbamoylthiophen-2-yl-methyl)-(3-nitrophenyl)amide], for which the IC50 in test [1] worked out at 0.8 nM; in test [2], 110 nM.
The matching figures for `C#CC(=O)N(c1ccc(-c2csnn2)cc1)C(C(=O)NC1CCCCC1)c1cccs1` (stereo not drawn) [Compound 28, Propynoic Acid (cyclohexylcarbamoylthiophen-2-yl-methyl)-(4-[1,2,3]thiadiazol-4-yl-phenyl)amide]: 2.2 nM and 70 nM.
Regarding `C#CC(=O)N(c1ccc(C(O)(C(F)(F)F)C(F)(F)F)cc1)C(C(=O)NC1CCCCC1)c1cccs1` (stereo not drawn) [Compound 29, Propynoic Acid (cyclohexylcarbamoylthiophen-2-yl-methyl)-[4-(2,2,2-trifluoro-1-hydroxy-1-trifluoromethylethyl)phenyl]amide], the IC50 in test [1] was 18 nM; in test [2] it was 877 nM.
The matching figures for `C#CC(=O)N(c1ccc(N(CC)CC)cc1)C(C(=O)NC1CCCCC1)c1cccs1` (stereo not drawn) [Compound 32, Propynoic Acid (cyclohexylcarbamoylthiophen-2-yl-methyl)-(4-diethylaminophenyl)amide]: 2.9 nM and 1260 nM.
In the same order, the values of `C#CC(=O)N(c1ccccc1Cl)C(C(=O)NC1CCCCC1)c1cccs1` (stereo not drawn) [Compound 33, Propynoic Acid (2-chlorophenyl)(cyclohexylcarbamoylthiophen-2-yl-methyl)amide] are 2.7 nM and 736 nM.
The matching figures for `C#CC(=O)N(c1cccc(-c2ccnc(C)n2)c1)C(C(=O)NC1CCCCC1)c1cccs1` (stereo not drawn) [Compound 38, Propynoic Acid (cyclohexylcarbamoylthiophen-2-yl-methyl)-[3-(2-methylpyrimidin-4-yl)-phenyl]amide]: 1.9 nM and 272 nM.
Take `C#CC(=O)N(c1ccc(Cl)cc1)C(C(=O)NC1CCCCC1)c1cccs1` (stereo not drawn) [Compound 41, Propynoic Acid (4-chlorophenyl)(cyclohexylcarbamoylthiophen-2-yl-methyl)amide]: the IC50 stood at 3.2 nM in test [1] and 158 nM in test [2].
For `C#CC(=O)N(c1ccc(N2CCOCC2)cc1)C(C(=O)NC1CCCCC1)c1cccs1` (stereo not drawn) [Compound 48, Propynoic Acid (cyclohexylcarbamoylthiophen-2-yl-methyl)-(4-morpholin-4-yl-phenyl)amide], the IC50 in test [1] turned out to be 1 nM.
For `C#CC(=O)N(c1ccc2[nH]ncc2c1)C(C(=O)NC1CCCCC1)c1cccs1` (stereo not drawn) [Compound 49, Propynoic Acid (cyclohexylcarbamoylthiophen-2-yl-methyl)-(1H-indazol-5-yl)-amide], the IC50 in test [1] was 1 nM; in test [2], 220 nM.
In the same order, the values of `C#CC(=O)N(c1ccc(F)cc1F)C(C(=O)NC1CCCCC1)c1cccs1` (stereo not drawn) [Compound 50, Propynoic Acid (cyclohexylcarbamoylthiophen-2-yl-methyl)-(2,4-difluorophenyl)amide] are 2 nM and 282 nM.
Turning to `C#CC(=O)N(c1ccc(C(C)(C)C)cc1)C(C(=O)NC1CCCCC1)c1cccs1` (stereo not drawn) [Compound 52, Propynoic Acid (4-tert-butylphenyl)(cyclohexylcarbamoylthiophen-2-yl-methyl)amide], the IC50 in test [1] amounted to 3.5 nM; in test [2] it was 708 nM.
In the same order, the values of `C#CC(=O)N(c1ccc(C#N)cc1)C(C(=O)NC1CCCCC1)c1cccs1` (stereo not drawn) [Compound 53, Propynoic Acid (4-cyanophenyl)(cyclohexylcarbamoylthiophen-2-yl-methyl)amide] are 2.8 nM and 372 nM.
The matching figures for `C#CC(=O)N(c1ccccc1C#N)C(C(=O)NC1CCCCC1)c1cccs1` (stereo not drawn) [Compound 54, Propynoic Acid (2-cyanophenyl)(cyclohexylcarbamoylthiophen-2-yl-methyl)amide]: 2.9 nM and 224 nM.
The matching figures for `C#CC(=O)N(c1ccc(Oc2ccccc2)cc1)C(C(=O)NC1CCCCC1)c1cccs1` (stereo not drawn) [Compound 55, Propynoic Acid (cyclohexylcarbamoylthiophen-2-yl-methyl)-(4-phenoxyphenyl)amide]: 2.4 nM and 694 nM.
Turning to `C#CC(=O)N(c1cccc(C#C)c1)C(C(=O)NC1CCCCC1)c1cccs1` (stereo not drawn) [Compound 56, Propynoic Acid (cyclohexylcarbamoylthiophen-2-yl-methyl)-(3-ethynylphenyl)amide], the IC50 in test [1] came to 1.4 nM; in test [2], 640 nM.
In the same order, the values of `C#CC(=O)N(c1ccc(C(C)C)cc1)C(C(=O)NC1CCCCC1)c1cccs1` (stereo not drawn) [Compound 57, Propynoic Acid (cyclohexylcarbamoylthiophen-2-yl-methyl)-(4-isopropylphenyl)amide] are 8.1 nM and 599 nM.
For the molecule `C#CC(=O)N(c1cccc(C(F)(F)F)c1)C(C(=O)NC1CCCCC1)c1ccccc1` (stereo not drawn) [Compound 66, Propynoic Acid (cyclohexylcarbamoyl phenylmethyl)-(3-trifluoromethylphenyl)amide], the IC50 in test [1] was found to be 1 nM.
Turning to `C#CC(=O)N(c1cccc(C(F)(F)F)c1)C(C(=O)NC1CCCCC1)c1ccc(N(C)C)cc1` (stereo not drawn) [Compound 76, Propynoic Acid [cyclohexylcarbamoyl-(4-dimethylaminophenyl)methyl]-(3-trifluoromethylphenyl)amide], in test [1], the IC50 was 1.5 nM.
The same measure, in the same setting: the result for `C#CC(=O)N(c1cccc2ccccc12)C(C(=O)NC1CCCCC1)c1ccccc1` (stereo not drawn) [Compound 176] reads 1.9 nM.
Still for that read-out and setting: the result for `C#CC(=O)N(Cc1ccc2c(c1)OCO2)C(C(=O)NCc1ccccc1)c1ccccc1F` (stereo not drawn) [Compound 181] reads 0.2 nM.
